In ChEMBL document CHEMBL1134182, “Modified synthesis and antiangiogenic activity of linomide” (2001):

Columns and labels:
Mus musculus [1] = experiment: In vivo effect of compound on VEGF-induced angiogenesis in blood vessels of mice; type: functional
Mus musculus [2] = experiment: In vivo effect of compound on VEGF-induced angiogenesis in blood volume of mice; type: functional

`CN(C(=O)c1c(O)c2ccccc2n(C)c1=O)c1ccccc1` [ROQUINIMEX] was tested, and the Activity (Mus musculus [1]) was <3.48% and the Blood volume (Mus musculus [2]) was <0.33 HB g ml-1.
